Patent US9957263B2, “Bromodomain inhibitors” (AbbVie Inc., priority 2013, dated 2018)
pKi: −log10 of the molar value.

Tests used:
BRD4 (BDI_K57-E168) = BRD4 (BDI_K57-E168) (Homo sapiens (Human), UniProt O60885); assay: TR-FRET bromodomain binding assay, BRD4 first bromodomain; conditions: His-tagged BD1, Alexa647-labeled probe 100 nM
Description: (§1) A time-resolved fluorescence resonance energy transfer (TR-FRET) assay was used to determine the affinities of compounds of the Examples listed in Table 1 for each bromodomain of BRD4. His-tagged first (BD1: amino acids K57-E168) and second (BD2: amino acids E352-E168) bromodomains of BRD4 were expressed and purified. An Alexa647-labeled BET-inhibitor was used as the fluorescent probe in the assay.
(§2) Compound dilution series were prepared in DMSO via a 3-fold serial dilution from 2.5 mM to 42 nM. Compounds were then diluted 6:100 in assay buffer (20 mM Sodium Phosphate, pH 6.0, 50 mM NaCl, 1 mM Ethylenediaminetetraacetic acid disodium salt dihydrate, 0.01% Triton X-100, 1 mM DL-Dithiothreitol) to yield 3× working solutions. Six microliters (μL) of the working solution was then transferred to white, low-volume assay plates (Costar #3673). A 1.5× assay mixture containing His-tagged bromodomain, Europium-conjugated anti-His antibody (Invitrogen PV5596) and the Alexa-647-conjugated probe molecule was also prepared. Twelve μL of this solution were added to the assay plate to reach a final volume of 18 μL. The final concentration of 1× assay buffer contains 2% DMSO, 50 μM-0.85 nM compound, 8 nM His-tagged bromodomain, 1 nM Europium-conjugated anti-His-tag antibody and 100 nM or 30 nM probe (for BDI or BDII, respectively). After a one-hour incubation at room temperature, TR-FRET ratios were determined using an Envision multilabel plate reader (Ex 340, Em […]).
(§3) TR-FRET data were normalized to the means of 24 no-compound controls (“high”) and 8 controls containing 1 μM un-labeled probe (“low”). Percent inhibition was plotted as a function of compound concentration and the data were fit with the 4 parameter logistic equation to obtain IC50s. Inhibition constants (Ki) were calculated from the IC50s, probe Kd and probe concentration. Typical Z′ values were between 0.65 and 0.75. The minimum significant ratio was determined to evaluate assay reproducibility (Eastwood et al., (2006) J Biomol Screen, 11: 253-261). The MSR was determined to be 2.03 for BDI and 1.93 for BDII, and a moving MSR (last six run MSR overtime) for both BDI and BDII was typically <3.

BRD4 (BDII_E352-M457) = BRD4 (BDII_E352-M457) (Homo sapiens (Human), UniProt O60885); assay: TR-FRET bromodomain binding assay, BRD4 second bromodomain; conditions: His-tagged BD2, Alexa647-labeled probe 30 nM
Description: as §1, §2, §3

Compound	pKi (BRD4 (BDI_K57-E168))	pKi (BRD4 (BDII_E352-M457))
CCS(=O)(=O)Nc1cc(-c2cn(C)c(=O)c3[nH]ccc23)c(Oc2ccc(F)cc2F)cc1CNCCO [Example 13, N-[4-(2,4-difluorophenoxy)-2-{[(2-hydroxyethyl)amino]methyl}-5-(6-methyl-7-oxo-6,7-dihydro-1H-pyrrolo[2,3-c]pyridin-4-yl)phenyl]ethanesulfonamide]	7.38	8.13
Cn1cc(-c2cc(S(C)(=O)=O)ccc2Oc2cccc(C(=O)N3CCN(CCO)CC3)c2)c2cc[nH]c2c1=O [Example 26, 4-[2-(3-{[4-(2-hydroxyethyl)piperazin-1-yl]carbonyl}phenoxy)-5-(methylsulfonyl)phenyl]-6-methyl-1,6-dihydro-7H-pyrrolo[2,3-c]pyridin-7-one]	7.57	7.82
CCS(=O)(=O)Nc1cc(-c2cn(C)c(=O)c3[nH]ccc23)c(Oc2ccc(F)cc2F)cc1CO [Example 6, N-[4-(2,4-difluorophenoxy)-2-(hydroxymethyl)-5-(6-methyl-7-oxo-6,7-dihydro-1H-pyrrolo[2,3-c]pyridin-4-yl)phenyl]ethanesulfonamide]	7.85	8.70
Cn1cc(-c2cc(S(C)(=O)=O)ccc2Oc2ccc(F)cc2F)c2cc(CN3CCN(C4CC4)CC3)[nH]c2c1=O [Example 115, 2-[(4-cyclopropylpiperazin-1-yl)methyl]-4-[2-(2,4-difluorophenoxy)-5-(methylsulfonyl)phenyl]-6-methyl-1,6-dihydro-7H-pyrrolo[2,3-c]pyridin-7-one]	8.28	6.92
Cn1cc(-c2cc(S(C)(=O)=O)ccc2Oc2cccc(C(=O)NC3CCCCC3)c2)c2cc[nH]c2c1=O [Example 25, N-cyclohexyl-3-[2-(6-methyl-7-oxo-6,7-dihydro-1H-pyrrolo[2,3-c]pyridin-4-yl)-4-(methylsulfonyl)phenoxy]benzamide]	7.72	8.21
Cn1cc(-c2cc(S(C)(=O)=O)ccc2Oc2cccc(C(=O)NCCN3CCCC3)c2)c2cc[nH]c2c1=O [Example 35, 3-[2-(6-methyl-7-oxo-6,7-dihydro-1H-pyrrolo[2,3-c]pyridin-4-yl)-4-(methylsulfonyl)phenoxy]-N-[2-(pyrrolidin-1-yl)ethyl]benzamide]	8.51	8.72
CSCCCN[C@H]1CC[C@H](Nc2ccc(S(C)(=O)=O)cc2-c2cn(C)c(=O)c3[nH]ccc23)CC1 [Example 112, 6-methyl-4-{2-[(trans-4-{[3-(methylsulfanyl)propyl]amino}cyclohexyl)amino]-5-(methylsulfonyl)phenyl}-1,6-dihydro-7H-pyrrolo[2,3-c]pyridin-7-one]	8.27	8.00
Cn1cc(-c2cc(S(C)(=O)=O)ccc2Oc2ccc(F)cc2F)c2cc(CN3CCN(c4ccccn4)CC3)[nH]c2c1=O [Example 132, 4-[2-(2,4-difluorophenoxy)-5-(methylsulfonyl)phenyl]-6-methyl-2-{[4-(pyridin-2-yl)piperazin-1-yl]methyl}-1,6-dihydro-7H-pyrrolo[2,3-c]pyridin-7-one]	7.57	6.89
Cn1cc(-c2cc(S(C)(=O)=O)ccc2Oc2cccc(NS(=O)(=O)c3ccc([N+](=O)[O-])cc3)c2)c2cc[nH]c2c1=O [Example 43, N-{3-[2-(6-methyl-7-oxo-6,7-dihydro-1H-pyrrolo[2,3-c]pyridin-4-yl)-4-(methylsulfonyl)phenoxy]phenyl}-4-nitrobenzenesulfonamide]	8.30	8.52
CC(=O)N1CCN(C(=O)c2cccc(Oc3ccc(S(C)(=O)=O)cc3-c3cn(C)c(=O)c4[nH]ccc34)c2)CC1 [Example 30, 4-[2-{3-[(4-acetylpiperazin-1-yl)carbonyl]phenoxy}-5-(methylsulfonyl)phenyl]-6-methyl-1,6-dihydro-7H-pyrrolo[2,3-c]pyridin-7-one]	7.55	7.77
Cn1cc(-c2cc(S(C)(=O)=O)ccc2Oc2ccc(F)cc2F)c2cc(CN3CC(n4cncn4)C3)[nH]c2c1=O [Example 156, 4-[2-(2,4-difluorophenoxy)-5-(methylsulfonyl)phenyl]-6-methyl-2-{[3-(1H-1,2,4-triazol-1-yl)azetidin-1-yl]methyl}-1,6-dihydro-7H-pyrrolo[2,3-c]pyridin-7-one]	7.57	7.37
Cn1cc(-c2cc(S(C)(=O)=O)ccc2NC2CCN(Cc3cccs3)CC2)c2cc[nH]c2c1=O [Example 89, 6-methyl-4-[5-(methylsulfonyl)-2-{[1-(thiophen-2-ylmethyl)piperidin-4-yl]amino}phenyl]-1,6-dihydro-7H-pyrrolo[2,3-c]pyridin-7-one]	7.66	7.36
Cn1cc(-c2cc(S(C)(=O)=O)ccc2Oc2cccc(NCc3cc(F)cc(F)c3)c2)c2cc[nH]c2c1=O [Example 73, 4-[2-{3-[(3,5-difluorobenzyl)amino]phenoxy}-5-(methylsulfonyl)phenyl]-6-methyl-1,6-dihydro-7H-pyrrolo[2,3-c]pyridin-7-one]	8.25	8.46
Cn1cc(-c2cc(S(C)(=O)=O)ccc2N[C@H]2CC[C@H](NCc3cccs3)CC2)c2cc[nH]c2c1=O [Example 107, 6-methyl-4-[5-(methylsulfonyl)-2-({trans-4-[(thiophen-2-ylmethyl)amino]cyclohexyl}amino)phenyl]-1,6-dihydro-7H-pyrrolo[2,3-c]pyridin-7-one]	8.52	8.05
COC1CCC(C(=O)N2CCC(Nc3ccc(S(C)(=O)=O)cc3-c3cn(C)c(=O)c4[nH]ccc34)CC2)CC1 (centres unmarked) [Example 94, 4-[2-({1-[(4-methoxycyclohexyl)carbonyl]piperidin-4-yl}amino)-5-(methylsulfonyl)phenyl]-6-methyl-1,6-dihydro-7H-pyrrolo[2,3-c]pyridin-7-one]	7.52	7.70
Cn1cc(-c2cc(S(C)(=O)=O)ccc2NC2CCN(S(=O)(=O)c3cccc(C#N)c3)CC2)c2cc[nH]c2c1=O [Example 105, 3-[(4-{[2-(6-methyl-7-oxo-6,7-dihydro-1H-pyrrolo[2,3-c]pyridin-4-yl)-4-(methylsulfonyl)phenyl]amino}piperidin-1-yl)sulfonyl]benzonitrile]	8.14	7.77
CN(C)CCNC(=O)c1cccc(Oc2ccc(S(C)(=O)=O)cc2-c2cn(C)c(=O)c3[nH]ccc23)c1 [Example 33, N-[2-(dimethylamino)ethyl]-3-[2-(6-methyl-7-oxo-6,7-dihydro-1H-pyrrolo[2,3-c]pyridin-4-yl)-4-(methylsulfonyl)phenoxy]benzamide]	8.09	8.51
CCS(=O)(=O)c1ccc(Oc2c(C)cccc2Cl)c(-c2cn(C)c(=O)c3[nH]c(C(=O)NCC(=O)NC)cc23)c1 [Example 124, 4-[2-(2-chloro-6-methylphenoxy)-5-(ethylsulfonyl)phenyl]-6-methyl-N-[2-(methylamino)-2-oxoethyl]-7-oxo-6,7-dihydro-1H-pyrrolo[2,3-c]pyridine-2-carboxamide]	7.05	8.00
COc1cc(CN2CCC(Nc3ccc(S(C)(=O)=O)cc3-c3cn(C)c(=O)c4[nH]ccc34)CC2)cc(OC)c1OC [Example 88, 6-methyl-4-[5-(methylsulfonyl)-2-{[1-(3,4,5-trimethoxybenzyl)piperidin-4-yl]amino}phenyl]-1,6-dihydro-7H-pyrrolo[2,3-c]pyridin-7-one]	8.31	7.64
CCNC(=O)c1cc2c(-c3cc(S(=O)(=O)CC)ccc3Oc3c(C)cccc3CN3CCOCC3)cn(C)c(=O)c2[nH]1 [Example 146, N-ethyl-4-{5-(ethylsulfonyl)-2-[2-methyl-6-(morpholin-4-ylmethyl)phenoxy]phenyl}-6-methyl-7-oxo-6,7-dihydro-1H-pyrrolo[2,3-c]pyridine-2-carboxamide]	5.48	7.30
Cn1cc(-c2cc(S(C)(=O)=O)ccc2Oc2cccc(NS(=O)(=O)Cc3ccccc3)c2)c2cc[nH]c2c1=O [Example 38, N-{3-[2-(6-methyl-7-oxo-6,7-dihydro-1H-pyrrolo[2,3-c]pyridin-4-yl)-4-(methylsulfonyl)phenoxy]phenyl}-1-phenylmethanesulfonamide]	8.29	8.72
Cn1cc(-c2cc(S(C)(=O)=O)ccc2Oc2cccc(NS(=O)(=O)c3cccc(C#N)c3)c2)c2cc[nH]c2c1=O [Example 57, 3-cyano-N-{3-[2-(6-methyl-7-oxo-6,7-dihydro-1H-pyrrolo[2,3-c]pyridin-4-yl)-4-(methylsulfonyl)phenoxy]phenyl}benzenesulfonamide]	8.28	8.66
